Results: PubChem BioAssay AID1963438 (Molecular Pharmacology Branch, DTP, NCI, 2024)
Several values for one entry are separate records, joined by “and”; a condition that tells them apart may be missing. Identical values can stand only once.

System: NCI-H510 multicellular tumor spheroid growth, % test/control
Experiment: Anticancer human tumor NCI-H510 cell line growth inhibition [Asc];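 note: spheroids exposed to agents for 7 days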;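 for viability, T/C: 100% = DMSO vehicle control wells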
Details: for viability, T/C: stronger effect = lower value; active = viability on the fitted dose curve at most 10% of control; inactive = the rest
Method in brief: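 Concentration series start at each agent's clinical Cmax, or at 10 microM when none is established, and drop in half-log steps; agents are applied alone or together to complex spheroids built with HUVEC and hMSC.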

[1] = curve of first compound, second compound 0.01 µM
[2] = curve of first compound, second compound 0.0316 µM
[3] = curve of first compound, second compound 0.1 µM
[4] = curve of first compound, second compound 0.316 µM
[5] = curve of first compound, second compound 1 µM
[6] = second compound 0.01 µM, first compound 0.0316 µM
[7] = second compound 0.01 µM, first compound 0.1 µM
[8] = second compound 0.01 µM, first compound 0.316 µM
[9] = second compound 0.01 µM, first compound 1 µM
[10] = second compound 0.0316 µM, first compound 0.0316 µM
[11] = second compound 0.0316 µM, first compound 0.1 µM
[12] = second compound 0.0316 µM, first compound 0.316 µM
[13] = second compound 0.0316 µM, first compound 1 µM
[14] = second compound 0.1 µM, first compound 0.0316 µM
[15] = second compound 0.1 µM, first compound 0.1 µM
[16] = second compound 0.1 µM, first compound 0.316 µM
[17] = second compound 0.1 µM, first compound 1 µM
[18] = second compound 0.316 µM, first compound 0.0316 µM
[19] = second compound 0.316 µM, first compound 0.1 µM
[20] = second compound 0.316 µM, first compound 0.316 µM
[21] = second compound 0.316 µM, first compound 1 µM
[22] = second compound 1 µM, first compound 0.0316 µM
[23] = second compound 1 µM, first compound 0.1 µM
[24] = second compound 1 µM, first compound 0.316 µM
[25] = second compound 1 µM, first compound 1 µM

CCN1CCN(Cc2ccc(Nc3ncc(F)c(-c4cc(F)c5nc(C)n(C(C)C)c5c4)n3)nc2)CC1 + CCN1C(C(=O)NC23CCC(C(=O)O)(CC2)CC3)C(c2cccc(Cl)c2F)C2(C(=O)Nc3cc(Cl)ccc32)C12CCCCC2
inactive: viability, T/C (second compound 0.03 µM, first compound 0.00316 µM) 100% | viability, T/C (second compound 0.03 µM, first compound 0.01 µM) 88% | viability, T/C (second compound 0.03 µM, first compound 0.0316 µM) 99.1% | viability, T/C (second compound 0.03 µM, first compound 0.1 µM) 129% | viability, T/C (second compound 0.03 µM, first compound 0.316 µM) 123% | viability, T/C (second compound 0.03 µM, first compound 1 µM) 75.7% | viability, T/C (second compound 0.0949 µM, first compound 0.00316 µM) 97.4% | viability, T/C (second compound 0.0949 µM, first compound 0.01 µM) 116% | viability, T/C (second compound 0.0949 µM, first compound 0.0316 µM) 121% | viability, T/C (second compound 0.0949 µM, first compound 0.1 µM) 110% | viability, T/C (second compound 0.0949 µM, first compound 0.316 µM) 105% | viability, T/C (second compound 0.0949 µM, first compound 1 µM) 87.5% | viability, T/C (second compound 0.3 µM, first compound 0.00316 µM) 119% | viability, T/C (second compound 0.3 µM, first compound 0.01 µM) 114% | viability, T/C (second compound 0.3 µM, first compound 0.0316 µM) 74.9% | viability, T/C (second compound 0.3 µM, first compound 0.1 µM) 86.1% | viability, T/C (second compound 0.3 µM, first compound 0.316 µM) 106% | viability, T/C (second compound 0.3 µM, first compound 1 µM) 88.7% | viability, T/C (second compound 0.949 µM, first compound 0.00316 µM) 105% | viability, T/C (second compound 0.949 µM, first compound 0.01 µM) 107% | viability, T/C (second compound 0.949 µM, first compound 0.0316 µM) 123% | viability, T/C (second compound 0.949 µM, first compound 0.1 µM) 74.5% | viability, T/C (second compound 0.949 µM, first compound 0.316 µM) 107% | viability, T/C (second compound 0.949 µM, first compound 1 µM) 106% | viability, T/C (second compound 3 µM, first compound 0.00316 µM) 98.2% | viability, T/C (second compound 3 µM, first compound 0.01 µM) 127% | viability, T/C (second compound 3 µM, first compound 0.0316 µM) 128% | viability, T/C (second compound 3 µM, first compound 0.1 µM) 76.1% | viability, T/C (second compound 3 µM, first compound 0.316 µM) 113% | viability, T/C (second compound 3 µM, first compound 1 µM) 83.1%
> 1000 nM: IC50 (curve of first compound, second compound 0.03 µM) | IC50 (curve of first compound, second compound 0.0949 µM) | IC50 (curve of first compound, second compound 0.3 µM) | IC50 (curve of first compound, second compound 0.949 µM) | IC50 (curve of first compound, second compound 3 µM)

C=C(F)C(=O)N1CCN(c2nc(OCC3CCCN3C)nc3c2CCN(c2cccc4cccc(Cl)c24)C3)CC1CC#N (configuration not stated)
active: viability, T/C (compound 10 µM) 0.2% and 0.21% and 0.25%
1.87% and 8.13% and 16.5%: viability, T/C (compound 3.16 µM)
inactive: viability, T/C (compound 0.0316 µM) 109% and 85.9% and 108% | viability, T/C (compound 0.1 µM) 87.2% and 84.2% and 92% | viability, T/C (compound 0.316 µM) 72.8% and 84.8% and 97.8% | viability, T/C (compound 1 µM) 67.5% and 68.6% and 102%
1340 nM and 1420 nM and 1990 nM: IC50 (curve of compound)

COc1c(OCCCN2CCOCC2)ccc2c3n(c(=NC(=O)c4cnc(N)nc4)nc12)CCN3 + CNC(C)C(=O)NC1CN(S(=O)(=O)c2cccc(S(=O)(=O)N3CCC4CCC(C(=O)NC(c5ccccc5)c5ccccc5)N4C(=O)C(NC(=O)C(C)NC)C3)c2)CCC2CCC(C(=O)NC(c3ccccc3)c3ccccc3)N2C1=O
inactive: viability, T/C (second compound 0.01 µM, first compound 0.00316 µM) 119% | viability, T/C (second compound 0.01 µM, first compound 0.01 µM) 104% | viability, T/C [6] 118% | viability, T/C [7] 130% | viability, T/C [8] 127% | viability, T/C [9] 128% | viability, T/C (second compound 0.0316 µM, first compound 0.00316 µM) 106% | viability, T/C (second compound 0.0316 µM, first compound 0.01 µM) 114% | viability, T/C [10] 125% | viability, T/C [11] 117% | viability, T/C [12] 120% | viability, T/C [13] 113% | viability, T/C (second compound 0.1 µM, first compound 0.00316 µM) 92.2% | viability, T/C (second compound 0.1 µM, first compound 0.01 µM) 109% | viability, T/C [14] 106% | viability, T/C [15] 128% | viability, T/C [16] 112% | viability, T/C [17] 125% | viability, T/C (second compound 0.316 µM, first compound 0.00316 µM) 115% | viability, T/C (second compound 0.316 µM, first compound 0.01 µM) 104% | viability, T/C [18] 108% | viability, T/C [19] 105% | viability, T/C [20] 121% | viability, T/C [21] 109% | viability, T/C (second compound 1 µM, first compound 0.00316 µM) 107% | viability, T/C (second compound 1 µM, first compound 0.01 µM) 113% | viability, T/C [22] 112% | viability, T/C [23] 139% | viability, T/C [24] 116% | viability, T/C [25] 110%
> 1000 nM: IC50 [1] | IC50 [2] | IC50 [3] | IC50 [4] | IC50 [5]

C=CC(=O)N1CCN(c2nc(=O)n(-c3c(C)ccnc3C(C)C)c3nc(-c4c(O)cccc4F)c(F)cc23)C(C)C1 (configuration not stated) + CNC(C)C(=O)NC1CN(S(=O)(=O)c2cccc(S(=O)(=O)N3CCC4CCC(C(=O)NC(c5ccccc5)c5ccccc5)N4C(=O)C(NC(=O)C(C)NC)C3)c2)CCC2CCC(C(=O)NC(c3ccccc3)c3ccccc3)N2C1=O
> 10000 nM: IC50 [1] | IC50 [2] | IC50 [3] | IC50 [4] | IC50 [5]
inactive: viability, T/C [6] 115% | viability, T/C [7] 101% | viability, T/C [8] 102% | viability, T/C [9] 115% | viability, T/C (second compound 0.01 µM, first compound 3.16 µM) 113% | viability, T/C (second compound 0.01 µM, first compound 10 µM) 115% | viability, T/C [10] 105% | viability, T/C [11] 108% | viability, T/C [12] 95.6% | viability, T/C [13] 119% | viability, T/C (second compound 0.0316 µM, first compound 3.16 µM) 104% | viability, T/C (second compound 0.0316 µM, first compound 10 µM) 110% | viability, T/C [14] 112% | viability, T/C [15] 95.8% | viability, T/C [16] 102% | viability, T/C [17] 91.9% | viability, T/C (second compound 0.1 µM, first compound 3.16 µM) 105% | viability, T/C (second compound 0.1 µM, first compound 10 µM) 106% | viability, T/C [18] 110% | viability, T/C [19] 113% | viability, T/C [20] 102% | viability, T/C [21] 95.8% | viability, T/C (second compound 0.316 µM, first compound 3.16 µM) 104% | viability, T/C (second compound 0.316 µM, first compound 10 µM) 93.3% | viability, T/C [22] 96.5% | viability, T/C [23] 105% | viability, T/C [24] 107% | viability, T/C [25] 101% | viability, T/C (second compound 1 µM, first compound 3.16 µM) 98.2% | viability, T/C (second compound 1 µM, first compound 10 µM) 110%
